Experimental data as given in patent publication US5925618A, “Peptides useful as somatostatin antagonists” (American Cyanamid Company, priority 1998, dated 1999).
Square brackets hold non-standard residues; d marks the D form. Peptide text beside a SMILES is read from it.

The compounds below were run against T1, rat SSTR2 (Rattus norvegicus, UniProt P30680) (assay: cAMP accumulation in forskolin-stimulated GH4 C1/SSTR2 cells). Details: Forskolin 1.25 μM alone.
T1 construct: expressed in transfected cells; host or cells: GH4C1 rat pituitary tumor cells
T1 sequence (P30680 whole entry): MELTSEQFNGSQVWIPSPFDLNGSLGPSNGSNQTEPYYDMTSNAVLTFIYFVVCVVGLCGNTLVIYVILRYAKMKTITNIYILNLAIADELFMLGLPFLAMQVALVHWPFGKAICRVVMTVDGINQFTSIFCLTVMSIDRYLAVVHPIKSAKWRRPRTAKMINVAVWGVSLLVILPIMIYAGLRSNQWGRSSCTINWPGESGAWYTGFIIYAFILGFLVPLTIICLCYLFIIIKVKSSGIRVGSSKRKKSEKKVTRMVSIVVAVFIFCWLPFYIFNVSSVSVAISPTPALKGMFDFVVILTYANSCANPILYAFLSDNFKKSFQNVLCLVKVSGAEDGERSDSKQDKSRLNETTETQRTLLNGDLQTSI
Type: cell-based
From the text: A primary effect of SRIF upon mammalian cells is the reduction of cyclic adenosine 3',5'-monophosphate(cAMP) levels, via inhibition of adenylyl cyclase. This is the basis of a common assay for SRIF agonists and antagonists, whereby SRIF agonists reduce artificially stimulated cAMP levels, and SRIF antagonists reverse the effect of SRIF. The rat pituitary tumor cell line GH4 C1 predominantly expresses SSTR2, and responds to SRIF and to forskolin, a stimulator of adenylate cyclase (see C. M. Eppler, et al., J. Biol. Chem., 267, 15603-15612, 1992, incorporated herein by reference). A highly sensitive assay for SRIF agonists and antagonists results from additionally transfecting GH4 C1 cells with the cloned rat SSTR2, (see L. A. Price, et al., Molecular and Cellular Biology, 15, 6188-6195, 1995, incorporated herein by reference). This increases the response to SRIF and provides a greater dynamic range for the measurement of SRIF antagonist activity.
Stimulation of cells. GH4 C1 /SSTR2 cells, grown in DMEM with 10% bovine serum, are released from a tissue culture dish by incubation for several minutes at 37° C. with PBS containing 0.5 mM EDTA. Cells are washed in induction buffer (PBS containing 100 μM IBMX (an inhibitor of cAMP breakdown) and 2 mM CaCl2) at room temperature, and resuspended at 2×10^6 /mL in induction buffer. Into each well of a 96-well tray are added 50 μL of a 2× concentration of stimulants in induction buffer. These include (at final concentration) 1.25 μM forskolin, 100 nM SRIF or 10 nM of the SSTR2-selective agonist MK678 and test peptides at various concentrations. To initiate stimulation of the cells, 50 μL (100,000) cells are added to each well, mixed by shaking 10 seconds on a plate shaker and placed at 37° C. for 15 minutes. Stimulation is arrested and cells are lysed by adding 15 μL 0.33N HCl to each well and incubating the plate for 30 minutes at 37° C. Samples are neutralized by addition of 15 μL 0.25N NaOH/50 mM Hepes pH 7.4. Baseline cAMP levels are determined in samples with no added forskolin or SRIF, and each treatment is performed in triplicate.
cAMP assay. To measure accumulated cAMP in the samples, a radioimmunoassay is employed. The scintillation proximity assay (SPA, Amersham, Arlington Heights, Ill.) allows the rapid measurement of ^125 I cAMP bound to a specific antibody without separating bound radioligand from free radioligand. Each of the following reagents (50 μL) are added per well in a 96-well tray: supernatants from the cell stimulation; ^125 I cAMP; SPA beads conjugated to monkey anti-rabbit IgG antibodies; and rabbit anti-cAMP antibodies. For the standard curve, known amounts of cAMP (0.2-12.8 pmol) are added in place of cell supernatants. The 96-well tray is sealed, shaken at room temperature overnight and measured for bound radioligand in a MicroBeta liquid scintillation counter (Wallac, Gaithersburg, Md.). The standard curve is determined for each experiment by performing a nonlinear regression (exponential decay) analysis of cpm measured for the cAMP standards vs. their log concentrations, and test sample values are determined by using Prism software (Graphpad Software Inc., San Diego, Calif.) and are shown in Table II and FIG. 1. FIG. I illustrates the antagonist activity of Peptide 1.
The intrinsic activity of an SRIF antagonist is the percent reversal of the SSTR2, activation by SRIF or MK678, wherein 0% is defined by cAMP levels in samples treated with forskolin plus SRIF or MK678 and 100% is the cAMP level measured after treatment with forskolin alone. Therefore, increased intrinsic activity of a test compound indicates increased antagonist activity of said test compound.
FIG. […]
An inverse agonist is a compound that is not only a pure antagonist (i.e. lacking agonist activity), but also blocks the constitutive activity of an unoccupied receptor. One indication of inverse agonist activity is the ability of a SRIF antagonist to increase cAMP levels in the absence of added SRIF. […]

| cAMP | SMILES |
| --- | --- |
| 3.04 pM per 4 × 10^4 cells | C=C[C@@]1(C)CC(=O)[C@]2(O)[C@@]3(C)[C@@H](O)CCC(C)(C)[C@@H]3[C@H](O)[C@H](OC(C)=O)[C@@]2(C)O1 [Forskolin, forskolin, reference compound] |

Same assay, conditions: GH4-C1; test peptide 2 μM; read-out: cAMP Assay, Intrinsic activity (percent reversal of SSTR2 activation by SRIF or MK678)

| Emax | SMILES |
| --- | --- |
| 56.5% | CC[C@@H](C)[C@@H](NC(=O)[C@@H](Cc1ccc(O)cc1)NC(=O)[C@@H](Cc1c[nH]cn1)NC(C)=O)C(=O)N[C@H](CCCNC(=N)N)C(=O)N[C@H](Cc1c[nH]c2ccccc12)C(=O)N[C@H](Cc1ccccc1)C(N)=O [Peptide 20, h-y-i-r-w-f] (Ac-[dH][dY][dI][dR][dW][dF]-NH2) |
| 2.76% | CC[C@@H](C)[C@@H](NC(=O)[C@@H](Cc1c[nH]cn1)NC(C)=O)C(=O)N[C@H](CCCNC(=N)N)C(=O)N[C@H](Cc1c[nH]c2ccccc12)C(=O)N[C@H](Cc1ccccc1)C(N)=O [Peptide 8, h-i-r-w-f] (Ac-[dH][dI][dR][dW][dF]-NH2) |
| 5.64% | CC[C@@H](C)[C@@H](NC(=O)[C@@H](Cc1ccc(O)cc1)NC(=O)[C@@H](Cc1c[nH]c2ccccc12)NC(C)=O)C(=O)N[C@H](CCCNC(=N)N)C(=O)N[C@H](Cc1c[nH]c2ccccc12)C(=O)N[C@H](Cc1ccccc1)C(N)=O [Peptide 23, w-y-i-r-w-f] (Ac-[dW][dY][dI][dR][dW][dF]-NH2) |
| 41.8% | CC(=O)N[C@H](Cc1c[nH]cn1)C(=O)N[C@H](Cc1ccccc1)C(=O)N[C@H](C)C(=O)N[C@H](CCCNC(=N)N)C(=O)N[C@H](Cc1c[nH]c2ccccc12)C(=O)N[C@H](Cc1ccccc1)C(N)=O [Peptide 4, h-f-a-r-w-f] (Ac-[dH][dF][dA][dR][dW][dF]-NH2) |
| 71.2% | CC[C@@H](C)[C@@H](NC(=O)[C@@H](Cc1ccccc1)NC(=O)[C@@H](Cc1c[nH]cn1)NC(C)=O)C(=O)N[C@H](CCCCN)C(=O)N[C@H](Cc1c[nH]c2ccccc12)C(=O)N[C@H](Cc1ccccc1)C(N)=O [Peptide 27, h-f-i-k-w-f] (Ac-[dH][dF][dI][dK][dW][dF]-NH2) |
| 25.3% | CC[C@@H](C)[C@@H](NC(=O)[C@@H](Cc1ccccc1)NC(=O)[C@@H](Cc1c[nH]cn1)NC(C)=O)C(=O)N[C@H](Cc1c[nH]c2ccccc12)C(=O)N[C@H](Cc1ccccc1)C(N)=O [Peptide 10, h-f-i-w-f] (Ac-[dH][dF][dI][dW][dF]-NH2) |
| 9.33% | CC[C@@H](C)[C@@H](NC(=O)[C@@H](C)NC(=O)[C@@H](Cc1c[nH]cn1)NC(C)=O)C(=O)N[C@H](CCCNC(=N)N)C(=O)N[C@H](Cc1c[nH]c2ccccc12)C(=O)N[C@H](Cc1ccccc1)C(N)=O [Peptide 3, h-a-i-r-w-f] (Ac-[dH][dA][dI][dR][dW][dF]-NH2) |
| 12.1% | CC[C@@H](C)[C@@H](NC(=O)[C@@H](Cc1ccccc1)NC(=O)[C@@H](Cc1c[nH]cn1)NC(C)=O)C(=O)N[C@H](CCCNC(=N)N)C(=O)N[C@H](Cc1ccccc1)C(N)=O [Peptide 11, h-f-i-r-f] (Ac-[dH][dF][dI][dR][dF]-NH2) |
| 29.6% | CC[C@@H](C)[C@@H](NC(=O)[C@H](Cc1ccccc1)NC(=O)[C@@H](Cc1c[nH]cn1)NC(C)=O)C(=O)N[C@H](CCCNC(=N)N)C(=O)N[C@H](Cc1c[nH]c2ccccc12)C(=O)N[C@H](Cc1ccccc1)C(N)=O [Peptide 14, h-F-i-r-w-f] (Ac-[dH]F[dI][dR][dW][dF]-NH2) |
| 29.1% | CC[C@@H](C)[C@@H](NC(=O)[C@@H](Cc1ccccc1)NC(=O)[C@@H](Cc1c[nH]cn1)NC(C)=O)C(=O)N[C@H](CCCNC(=N)N)C(=O)N[C@H](Cc1c[nH]c2ccccc12)C(N)=O [Peptide 12, h-f-i-r-w] (Ac-[dH][dF][dI][dR][dW]-NH2) |
| 27.4% | CC[C@@H](C)[C@@H](NC(=O)[C@@H](Cc1c[nH]cn1)NC(=O)[C@@H](Cc1c[nH]c2ccccc12)NC(C)=O)C(=O)N[C@H](CCCNC(=N)N)C(=O)N[C@H](Cc1c[nH]c2ccccc12)C(=O)N[C@H](Cc1ccccc1)C(N)=O [Peptide 22, w-h-i-r-w-f] (Ac-[dW][dH][dI][dR][dW][dF]-NH2) |
| 43.6% | CC[C@@H](C)[C@@H](NC(=O)[C@@H](Cc1ccccc1)NC(=O)[C@@H](Cc1c[nH]cn1)NC(C)=O)C(=O)N[C@@H](CCCNC(=N)N)C(=O)N[C@H](Cc1c[nH]c2ccccc12)C(=O)N[C@H](Cc1ccccc1)C(N)=O [Peptide 16, h-f-i-R-w-f] (Ac-[dH][dF][dI]R[dW][dF]-NH2) |
| 54.7% | CC[C@@H](C)[C@@H](NC(=O)[C@@H](Cc1c[nH]c2ccccc12)NC(=O)[C@@H](Cc1c[nH]cn1)NC(C)=O)C(=O)N[C@H](CCCNC(=N)N)C(=O)N[C@H](Cc1c[nH]c2ccccc12)C(=O)N[C@H](Cc1ccccc1)C(N)=O [Peptide 21, h-w-i-r-w-f] (Ac-[dH][dW][dI][dR][dW][dF]-NH2) |
| 33.3% | CC[C@@H](C)[C@@H](NC(=O)[C@@H](Cc1ccc(O)cc1)NC(=O)[C@@H](CCCCN)NC(C)=O)C(=O)N[C@H](CCCNC(=N)N)C(=O)N[C@H](Cc1c[nH]c2ccccc12)C(=O)N[C@H](Cc1ccccc1)C(N)=O [Peptide 19, k-y-i-r-w-f] (Ac-[dK][dY][dI][dR][dW][dF]-NH2) |
| 50.2% | CC[C@@H](C)[C@@H](NC(=O)[C@@H](Cc1ccccc1)NC(=O)[C@@H](Cc1c[nH]cn1)NC(C)=O)C(=O)N[C@H](CCCNC(=N)N)C(=O)N[C@@H](Cc1c[nH]c2ccccc12)C(=O)N[C@H](Cc1ccccc1)C(N)=O [Peptide 17, h-f-i-r-W-f] (Ac-[dH][dF][dI][dR]W[dF]-NH2) |
| 65.2% | CC[C@@H](C)[C@@H](NC(=O)[C@@H](Cc1c[nH]cn1)NC(=O)[C@@H](Cc1ccccc1)NC(C)=O)C(=O)N[C@H](CCCNC(=N)N)C(=O)N[C@H](Cc1c[nH]c2ccccc12)C(=O)N[C@H](Cc1ccccc1)C(N)=O [Peptide 24, f-h-i-r-w-f] (Ac-[dF][dH][dI][dR][dW][dF]-NH2) |
| 71.2% | CC(=O)N[C@H](Cc1c[nH]cn1)C(=O)N[C@H](Cc1ccccc1)C(=O)N[C@@H](C(=O)N[C@H](CCCNC(=N)N)C(=O)N[C@H](Cc1c[nH]c2ccccc12)C(=O)N[C@H](Cc1ccccc1)C(N)=O)C(C)C [Peptide 28, h-f-v-r-w-f] (Ac-[dH][dF][dV][dR][dW][dF]-NH2) |
| 10.8% | CC[C@@H](C)[C@@H](NC(=O)[C@@H](CCCNC(=N)N)NC(=O)[C@@H](Cc1ccccc1)NC(C)=O)C(=O)N[C@H](CCCNC(=N)N)C(=O)N[C@H](Cc1c[nH]c2ccccc12)C(=O)N[C@H](Cc1ccccc1)C(N)=O [Peptide 25, f-r-i-r-w-f] (Ac-[dF][dR][dI][dR][dW][dF]-NH2) |
| 13% | CC[C@@H](C)[C@@H](NC(=O)[C@@H](Cc1ccccc1)NC(=O)[C@@H](C)NC(C)=O)C(=O)N[C@H](CCCNC(=N)N)C(=O)N[C@H](Cc1c[nH]c2ccccc12)C(=O)N[C@H](Cc1ccccc1)C(N)=O [Peptide 2, a-f-i-r-w-f] (Ac-[dA][dF][dI][dR][dW][dF]-NH2) |
| 9.71% | CC[C@H](C)[C@H](NC(=O)[C@@H](Cc1ccccc1)NC(=O)[C@@H](Cc1c[nH]cn1)NC(C)=O)C(=O)N[C@H](CCCNC(=N)N)C(=O)N[C@H](Cc1c[nH]c2ccccc12)C(=O)N[C@H](Cc1ccccc1)C(N)=O [Peptide 15, h-f-I-r-w-f] (Ac-[dH][dF]I[dR][dW][dF]-NH2) |

| SMILES | Emax |
| --- | --- |
| CC[C@@H](C)[C@@H](NC(=O)[C@@H](Cc1ccccc1)NC(C)=O)C(=O)N[C@H](CCCNC(=N)N)C(=O)N[C@H](Cc1c[nH]c2ccccc12)C(=O)N[C@H](Cc1ccccc1)C(N)=O [Peptide 7, f-i-r-w-f] (Ac-[dF][dI][dR][dW][dF]-NH2) | -7.2% |
